pIC50: −log10 of the molar value.

For one assay, the system named is ATXN3 pre-mRNA. Put plainly: RT-qPCR Assay to Quantify Exon 4 Skipping in ATXN3 pre-mRNA in Cells. Format: cell-based. Particulars: percent exon 4 skipping in ATXN3 pre-mRNA, RT-qPCR of cell lysates; average IC50. The method in brief:
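IC50 derives from a dose-response fit of percent exon 4 skipping, quantified by RT-qPCR on crude lysates. Compounds tested as 7-point 3.16-fold dilutions in duplicate; cells (10,000/well) were exposed for 24 h at 37 °C before lysis.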

In assay [1] the test system is Total ATXN3 (tATXN3) protein. Put plainly: Endogenous Total ATXN3 (tATXN3) Protein Assay (MSD immunoassay of cell lysates). Format: cell-based. Particulars: average IC50, total ATXN3 protein in cell lysate after 48 h with compound (Table 1). The essentials:
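By electrochemiluminescent MSD sandwich immunoassay (mouse monoclonal capture, rabbit monoclonal and SULFO-TAG anti-rabbit detection), endogenous ATXN3 was quantified in lysates of cells treated 48 h at 37° C at 10,000 cells/well. Treatment used a 7-point 3.16-fold duplicate dilution series, with average IC50 grouped into star categories.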

For orientation: pIC50 means the negative decadic logarithm of the IC50, by convention in mol/L. On to `CC#CCNc1cc(Cl)nc2c(Br)c([C@@H]3CC=CC[C@H]3N)sc12` [Compound 429, 2-((1R,6R)-6-aminocyclohex-3-en-1-yl)-3-bromo-N-(but-2-yn-1-yl)-5-chlorothieno[3,2-b]pyridin-7-amine], for which the pIC50 (in the assay on ATXN3 pre-mRNA; in assay [1]) was no less than 7.52 throughout.
For the molecule `CCc1c([C@H]2CCCCCC[C@@H]2N)sc2c(NCc3cccs3)cc(Cl)nc12` [Compound 164, 2-((1S,2S)-2-aminocyclooctyl)-5-chloro-3-ethyl-N-(thiophen-2-ylmethyl)thieno[3,2-b]pyridin-7-amine], the pIC50 was 6.00 to 6.52 in the assay with ATXN3 pre-mRNA and less than 6.00 in assay [1].
Regarding `N[C@H]1CCC[C@H]1c1sc2c(NCc3cccs3)cc(Cl)nc2c1Cl` [Compound 4, 2-((1R,2S)-2-aminocyclopentyl)-3,5-dichloro-N-(thiophen-2-ylmethyl)thieno[3,2-b]pyridin-7-amine], the pIC50 (in the assay with ATXN3 pre-mRNA; in assay [1]) was 6.52 to 7.52 in each case.
With `N[C@@H]1C[C@@H]2C[C@@H]2C[C@H]1c1sc2c(NCc3cccs3)cc(Cl)nc2c1Br.N[C@H]1C[C@H]2C[C@H]2C[C@@H]1c1sc2c(NCc3cccs3)cc(Cl)nc2c1Br` (mixture of isomers) [Compound 290, 2-((1R,3R,4R,6S)-4-aminobicyclo[4.1.0]heptan-3-yl)-3-bromo-5-chloro-N-(thiophen-2-ylmethyl)thieno[3,2-b]pyridin-7-amine and 2-((1S,3S,4S,6R)-4-aminobicyclo[4.1.0]heptan-3-yl)-3-bromo-5-chloro-N-(thiophen-2-ylmethyl)thieno[3,2-b]pyridin-7-amine], the pIC50 (in the assay with ATXN3 pre-mRNA; in assay [1]) was 6.52 to 7.52 in each case.
On to “2-((1R,6R)-6-aminocyclohex-3-en-1-yl)-5-chloro-3-methyl-N-(thiophen-2-ylmethyl)thieno[3,2-b]pyridin-7-amine and 2-((1S,6S)-6-aminocyclohex-3-en-1-yl)-5-chloro-3-methyl-N-(thiophen-2-ylmethyl)thieno[3,2-b]pyridin-7-amine [Compound 367]”, for which the pIC50 (in the assay with ATXN3 pre-mRNA; in assay [1]) was 6.52 to 7.52 throughout.
Regarding `N[C@H]1CC=CC[C@@H]1c1sc2c(NCc3ccsc3)cc(Cl)nc2c1Br` [Compound 217, 2-((1S,6S)-6-aminocyclohex-3-en-1-yl)-3-bromo-5-chloro-N-(thiophen-3-ylmethyl)thieno[3,2-b]pyridin-7-amine], the pIC50 (with ATXN3 pre-mRNA; in assay [1]) was no less than 7.52 each time.
As to `N[C@@H]1CC=CC[C@H]1c1sc2c(NCc3ccsc3)cc(Cl)nc2c1Br` [Compound 415, 2-((1R,6R)-6-aminocyclohex-3-en-1-yl)-3-bromo-5-chloro-N-(thiophen-3-ylmethyl)thieno[3,2-b]pyridin-7-amine], the pIC50 (in the assay with ATXN3 pre-mRNA; in assay [1]) was 6.00 to 6.52 in each case.
`N[C@H]1CC=CC[C@@H]1c1sc2c(NCc3ccccc3)nc(Cl)nc2c1I` [Compound 229, 6-((1S,6S)-6-aminocyclohex-3-en-1-yl)-N-benzyl-2-chloro-7-iodothieno[3,2-d]pyrimidin-4-amine]: the pIC50 (with ATXN3 pre-mRNA; in assay [1]) was no less than 7.52 in each case.
In the case of `N[C@H]1CC=CC[C@@H]1c1sc2c(NCc3ncco3)cc(Cl)nc2c1Cl` [Compound 199, 2-((1S,6S)-6-aminocyclohex-3-en-1-yl)-3,5-dichloro-N-(oxazol-2-ylmethyl)thieno[3,2-b]pyridin-7-amine], the pIC50 (with ATXN3 pre-mRNA; in assay [1]) was no less than 7.52 in each case.
In the case of `CCOC(=O)C1=CC[C@@H](c2sc3c(NCc4cccs4)cc(Cl)nc3c2C)[C@@H](N)C1` [Compound 445, ethyl (4R,5S)-5-amino-4-(5-chloro-3-methyl-7-((thiophen-2-ylmethyl)amino)thieno[3,2-b]pyridin-2-yl)cyclohex-1-ene-1-carboxylate], the pIC50 (with ATXN3 pre-mRNA; in assay [1]) was 6.00 to 6.52 in each case.
With `C/C=C/CNc1cc(Cl)nc2c(Br)c([C@@H]3CC=CC[C@H]3N)sc12.C/C=C/CNc1cc(Cl)nc2c(Br)c([C@H]3CC=CC[C@@H]3N)sc12` (mixture of isomers) [Compound 300, 2-((1R,6R)-6-aminocyclohex-3-en-1-yl)-3-bromo-N-((E)-but-2-en-1-yl)-5-chlorothieno[3,2-b]pyridin-7-amine and 2-((1S,6S)-6-aminocyclohex-3-en-1-yl)-3-bromo-N-((E)-but-2-en-1-yl)-5-chlorothieno[3,2-b]pyridin-7-amine], the pIC50 (in the assay on ATXN3 pre-mRNA; in assay [1]) was 6.52 to 7.52 each time.
Regarding “6-((3R,4S)-3-aminotetrahydro-2H-pyran-4-yl)-7-bromo-2-chloro-N-(thiophen-2-ylmethyl)thieno[3,2-d]pyrimidin-4-amine and 6-((3S,4R)-3-aminotetrahydro-2H-pyran-4-yl)-7-bromo-2-chloro-N-(thiophen-2-ylmethyl)thieno[3,2-d]pyrimidin-4-amine [Compound 347]”, the pIC50 (in the assay with ATXN3 pre-mRNA; in assay [1]) was 6.52 to 7.52 in each case.
“(1R,5R,6S)-5-amino-6-(3-bromo-5-chloro-7-((thiophen-2-ylmethyl)amino)thieno[3,2-b]pyridin-2-yl)cyclohex-2-en-1-ol and (1S,5S,6R)-5-amino-6-(3-bromo-5-chloro-7-((thiophen-2-ylmethyl)amino)thieno[3,2-b]pyridin-2-yl)cyclohex-2-en-1-ol [Compound 329]”: the pIC50 (with ATXN3 pre-mRNA; in assay [1]) was 6.52 to 7.52 each time.
On to `N[C@@H]1CCCC[C@H]1c1sc2c(NCc3ccncc3)cc(Cl)nc2c1Br` [Compound 432, 2-((1R,2R)-2-aminocyclohexyl)-3-bromo-5-chloro-N-(pyridin-4-ylmethyl)thieno[3,2-b]pyridin-7-amine], for which the pIC50 (in the assay on ATXN3 pre-mRNA; in assay [1]) was 6.52 to 7.52 in each case.
As to `Cc1c([C@@H]2OCCC[C@H]2N)sc2c(NCc3ccco3)cc(Cl)nc12` [Compound 134, ((2R,3R)-3-aminotetrahydro-2H-pyran-2-yl)-5-chloro-N-(furan-2-ylmethyl)-3-methylthieno[3,2-b]pyridin-7-amine], the pIC50 (in the assay with ATXN3 pre-mRNA; in assay [1]) was less than 6.00 each time.

For the origin of these results see patent US20250382305A1 (PTC THERAPEUTICS, INC., priority 2022, published 2025).
